Active and inactive are the calls of the source. The calls are words filed in the database; no cut-off is given here.
Assays:
[1] = target: T1, Protein cereblon/Stimulator of interferon genes protein (Homo sapiens, UniProt Q96SW2+Q86WV6); test: PROTAC activity at CRBN/STING in human THP-1 cells assessed as induction of STING degradation at 10 uM incubated for 24 hrs by western blot analysis; format: cell-based
[2] = target: T2, von Hippel-Lindau disease tumor suppressor/Stimulator of interferon genes protein (Homo sapiens, UniProt P40337+Q86WV6); test: PROTAC activity at VHL/STING (unknown origin) assessed as induction of protein degradation; format: protein assay
Target sequence in this assay (P40337 whole entry): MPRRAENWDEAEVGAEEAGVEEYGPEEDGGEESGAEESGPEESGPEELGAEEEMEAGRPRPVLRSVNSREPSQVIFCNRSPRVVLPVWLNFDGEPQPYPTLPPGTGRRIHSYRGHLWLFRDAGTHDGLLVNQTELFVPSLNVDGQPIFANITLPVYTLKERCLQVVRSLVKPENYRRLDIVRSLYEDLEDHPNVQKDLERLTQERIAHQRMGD
Target sequence in this assay (Q86WV6 whole entry): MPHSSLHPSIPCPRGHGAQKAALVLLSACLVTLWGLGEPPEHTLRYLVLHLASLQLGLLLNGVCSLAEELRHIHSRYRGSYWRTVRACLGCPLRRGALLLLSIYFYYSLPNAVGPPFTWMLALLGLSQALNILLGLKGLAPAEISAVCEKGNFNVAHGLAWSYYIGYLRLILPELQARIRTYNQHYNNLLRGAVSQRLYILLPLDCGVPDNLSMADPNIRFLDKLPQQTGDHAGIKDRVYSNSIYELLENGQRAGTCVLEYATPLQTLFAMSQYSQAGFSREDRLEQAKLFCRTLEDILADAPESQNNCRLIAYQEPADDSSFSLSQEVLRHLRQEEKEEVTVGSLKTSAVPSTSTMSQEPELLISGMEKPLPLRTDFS

[3] = target: T2, von Hippel-Lindau disease tumor suppressor/Stimulator of interferon genes protein; test: PROTAC activity at VHL/STING (unknown origin) assessed as induction of protein degradation relative to control; format: protein assay
Target sequence in this assay (P40337 whole entry, looked up): as the sequence (P40337 whole entry) above
Target sequence in this assay (Q86WV6 whole entry, looked up): as the sequence (Q86WV6 whole entry) above

[4] = target: T1, Protein cereblon/Stimulator of interferon genes protein; test: PROTAC activity at CRBN/STING in human THP-1 cells assessed as induction of STING degradation at 10 uM pretreated with proteasome inhibitor, MG132 for 1 hr followed by incubation with compound for 24 hrs by western blot analysis; format: cell-based
[5] = Cytotoxicity against HUVEC assessed as reduction in cell viability at 3.3 uM incubated for 48 hrs by MTT assay; format: toxicity, cell-based; conditions: human, HUVEC cells, read-out: INH
[6] = Cytotoxicity against HEK293T cells assessed as reduction in cell viability at 3.3 uM incubated for 48 hrs by MTT assay; format: toxicity, cell-based, HEK-293T; conditions: human, read-out: INH

T1 sequence (Q86WV6 whole entry, looked up): as the sequence (Q86WV6 whole entry) above
T1 sequence (Q96SW2 whole entry, looked up): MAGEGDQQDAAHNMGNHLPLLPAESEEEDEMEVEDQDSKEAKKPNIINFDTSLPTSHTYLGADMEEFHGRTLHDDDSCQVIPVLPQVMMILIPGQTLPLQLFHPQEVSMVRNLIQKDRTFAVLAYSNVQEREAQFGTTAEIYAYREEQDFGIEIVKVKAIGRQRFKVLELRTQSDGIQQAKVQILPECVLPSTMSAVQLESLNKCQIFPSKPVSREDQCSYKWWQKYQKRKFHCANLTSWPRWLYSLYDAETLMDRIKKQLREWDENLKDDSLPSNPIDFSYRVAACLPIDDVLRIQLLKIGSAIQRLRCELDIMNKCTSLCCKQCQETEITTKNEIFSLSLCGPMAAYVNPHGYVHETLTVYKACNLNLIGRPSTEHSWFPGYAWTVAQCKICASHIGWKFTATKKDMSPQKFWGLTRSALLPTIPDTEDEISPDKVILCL

Compound | Activity [1] | also measured
O=C1CCC(N2C(=O)c3ccc(OCc4cn(CC(=O)OCCc5ccc(NC(=O)c6ccc([N+](=O)[O-])o6)cc5)nn4)cc3C2=O)C(=O)N1 (stereo not drawn) | Active | –
O=C1CCC(N2C(=O)c3ccc(OCc4cn(CCCC(=O)OCCc5ccc(NC(=O)c6ccc([N+](=O)[O-])o6)cc5)nn4)cc3C2=O)C(=O)N1 (stereo not drawn) | 76% | –
Cc1ncsc1-c1ccc([C@H](C)NC(=O)[C@@H]2C[C@@H](O)CN2C(=O)[C@@H](NC(=O)CCC(=O)NCCCNC(=O)c2cccc(S(=O)(=O)n3cc(C(=O)NCCCCCC(=O)Oc4ccc(NC(=O)c5ccc(-c6ccccc6)cc5)cc4NS(=O)(=O)c4ccc(F)cc4)ccc3=O)c2)C(C)(C)C)cc1 | – | DC50 [2]: 530 nM; Activity [3]: 56.6%
O=C1CCC(N2C(=O)c3cccc(OC(=O)CCCc4cn(CCCCCC(=O)Oc5ccc(NC(=O)c6ccc([N+](=O)[O-])o6)cc5)nn4)c3C2=O)C(=O)N1 (stereo not drawn) | 71% | –
CN1C(=O)CCC(N2C(=O)c3cccc(OCc4cn(CCCCCC(=O)OCCc5ccc(NC(=O)c6ccc([N+](=O)[O-])o6)cc5)nn4)c3C2=O)C1=O (stereo not drawn) | – | Activity [4]: Active
CCCCc1ccc(NC(=O)c2ccc([N+](=O)[O-])o2)cc1 | – | cytotoxicity at 48 h, 3.3 µM [5]: 68.2%; cytotoxicity at 48 h, 3.3 µM [6]: 80.1%

More lines, main results first:

Activity [1] | Compound | also measured
inactive | O=C1CCC(N2C(=O)c3cccc(OCc4cn(CCCCCC(=O)Oc5ccc(NC(=O)c6ccc([N+](=O)[O-])o6)cc5)nn4)c3C2=O)C(=O)N1 (stereo not drawn) | –
Active | O=C1CCC(N2C(=O)c3cccc(OCc4cn(CCCC(=O)OCc5ccc(NC(=O)c6ccc([N+](=O)[O-])o6)cc5)nn4)c3C2=O)C(=O)N1 (stereo not drawn) | –
Active | O=C1CCC(N2C(=O)c3cccc(OCc4cn(CCCCCC(=O)OCc5ccc(NC(=O)c6ccc([N+](=O)[O-])o6)cc5)nn4)c3C2=O)C(=O)N1 (stereo not drawn) | –
Active | O=C1CCC(N2C(=O)c3cccc(OCc4cn(CC(=O)OCc5ccc(NC(=O)c6ccc([N+](=O)[O-])o6)cc5)nn4)c3C2=O)C(=O)N1 (stereo not drawn) | –
Active | O=C1CCC(N2C(=O)c3cccc(OCc4cn(CCCC(=O)Oc5ccc(NC(=O)c6ccc([N+](=O)[O-])o6)cc5)nn4)c3C2=O)C(=O)N1 (stereo not drawn) | –

From ChEMBL document CHEMBL6127068, “Discovery of novel nitrofuran PROTAC-like compounds as dual inhibitors and degraders targeting STING” (Eur J Med Chem, 2024)
